Experimental data reported in patent publication US11434225B2, “Salts and solid state forms of plinabulin” (PLIVA HRVATSKA D.O.O., priority 2017, dated 2022).

Conditions: solid state form

CC(C)(C)c1[nH]cnc1/C=c1\[nH]c(=O)/c(=C/c2ccccc2)[nH]c1=O [Plinabulin Form G]
stability upon exposure to humidity (upon exposure to humidity): shows stability
stability upon heating (upon heating): shows stability
